This note sets out measurements from patent publication US20160030415A1, “TREATMENT AND PROPHYLAXIS OF KIDNEY DISEASES” (priority 2013, published 2016).

Test [1] relates to Streptozotocin (STZ) induced diabetic rats. Put plainly: Study 2: HCQ and its combination with Losartan in comparison with anti-diabetic control (Glimepiride) in renal damage. As to conditions: for Serum Creatinine after 8th week / Serum Creatinine after 8th week (% Control) / Total Serum Protein Levels after 8th week / Total Serum Protein Levels after 8th week (% Control): Glimepiride 8 mg/kg alone (antidiabetic control) or with Losartan 11 mg/kg and/or Hydroxychloroquine 45 mg/kg, oral once daily; for Total Protein in Kidney Homogenate (% Control) / Total Protein in Kidney Homogenate Mean / TBARS (% Control) / TBARS Mean: after 8th week, Glimepiride 8 mg/kg alone or with Losartan 11 mg/kg and/or Hydroxychloroquine 45 mg/kg; for TBARS (% Control) / TBARS Mean: kidney homogenate. In kind it is in vivo, Wistar rats. Here is the method: The Efficacy of the drugs was tested in two different models, one involving comparison with diabetic control (i.e. Diabetic Rats not treated with any medication) and the other involving comparison with the anti-diabetic control group (i.e. Diabetic rats administered Glimepiride) in two separate studies. 30 Wistar rats of either sex weighing 150-250 g were divided randomly into 5 groups consisting of 6 animals each. Diabetes was induced in rats by single administration of Streptozotocin (STZ)(55 mg/kg/i.p) dissolved in 0.1 M-citrate buffer, pH 4.5. Group 1 (normal control) consisted of normal rats that neither received streptozotocin nor any test drug; Group 2 served as Anti-Diabetic control wherein diabetic rats were treated with antidiabetic drug Glimepiride. Group 3 was diabetic rats treated with Losartan (11 mg/kg); Group 4 was diabetic rats treated with Hydroxychloroquine (45 mg/kg) and Group 5 was diabetic rats treated with combination of Hydroxychloroquine (45 mg/kg) and Losartan (11 mg/kg). The study drugs were dissolved/suspended in distilled water and administered orally once a day for eight weeks. The diabetes mellitus induced nephropathy was assessed by estimating the level of serum creatinine and total serum protein content after completion of eighth week of study. TBARS and Total Protein were measured as markers of renal oxidative stress in Kidney Homogenate after completion of eighth week of study.

Test [2] relates to STZ induced diabetic nephropathy in rats. Put plainly: Study 3: HCQ and its combination with Losartan, Telmisartan, Azilsartan and Ramipril. As to conditions: oral once daily 8 weeks. Type of test: in vivo, Wistar rats. Here is the method:
The methods described in Terri et al, Diabetes Volume, 1997, 46:1612-1618, and Takashi et al, Jpn J. Pharmacol, 1997, 75, 59-64, were followed for inducing Diabetes in rats by injecting Streptozotocin. The Efficacy of the drugs was tested in two different models, one involving comparison with diabetic control (i.e. Diabetic Rats not treated with any medication) and the other involving comparison with the anti-diabetic control group (i.e. Diabetic rats administered Glimepiride) in two separate studies.
Male Wistar rats weighing 150-350 g were divided randomly into 29 groups consisting of 6 animals each. Diabetes was induced in rats by single administration of streptozotocin (55 mg/kg/i.p) dissolved in 0.1 M-citrate buffer, pH 4.5. Group 1 (normal control) consisted of normal rats that neither received streptozotocin nor any test drug; Group 2 consisted of normal rats treated with vehicle, Group 3 served as Streptozotocin (STZ) induced diabetic control. Group 4 was diabetic rats treated with Losartan (LT) (5.5 mg/kg); Group 5 was diabetic rats treated with LT (11 mg/kg); Group 6 was diabetic rats treated with Hydroxychloroquine (HCQ) (22.5 mg/kg), Group 7 was diabetic rats treated with HCQ (45 mg/kg); Group 8 was diabetic rats treated with combination of LT (5.5 mg/kg) and HCQ (22.5 mg/kg); Group 9 was diabetic rats treated with combination of LT (5.5 mg/kg) and HCQ (45 mg/kg); Group 10 was diabetic rats treated with LT (11 mg/kg) and HCQ (22.5 mg/kg); Group 11 was diabetic rats treated with LT (11 mg/kg) and HCQ (45 mg/kg); Group 12 was diabetic rats treated with Telmisartan (TL) (5 mg/kg); Group 13 was diabetic rats treated with Telmisartan (TL) (10 mg/kg); Group 14 was diabetic rats treated with the combination of TL (5 mg/kg) and HCQ (22.5 mg/kg); Group 15 was diabetic rats treated with the combination of TL (5 mg/kg) and HCQ (45 mg/kg); Group 16 was diabetic rats treated with the combination of TL (10 mg/kg) and HCQ (22.5 mg/kg); Group 17 was diabetic rats treated with the combination of TL (10 mg/kg) and HCQ (45 mg/kg); Group 18 was diabetic rats treated with Azilsartan (AZ) (2 mg/kg); Group 19 was diabetic rats treated with Azilsartan (AZ) (4 mg/kg); Group 20 was diabetic rats treated with combination of AZ (2 mg/kg) and HCQ (22.5 mg/kg); Group 21 was diabetic rats treated with combination of AZ (2 mg/kg) and HCQ (45 mg/kg); Group 22 was diabetic rats treated with combination of AZ (4 mg/kg) and HCQ (22.5 mg/kg); Group 23 diabetic rats treated with combination of AZ (4 mg/kg) and HCQ (45 mg/kg); Group 24 was diabetic rats treated with Ramipril (RM) (0.2 mg/kg); Group 25 was diabetic rats treated with RM (2.3 mg/kg); Group 26 was diabetic rats treated with combination of RM […]) and HCQ (22.5 mg/kg); Group 27 was diabetic rats treated with combination of RM (0.2 mg/kg) and HCQ (45 mg/kg); Group 28 was diabetic rats treated with combination of RM (2.3 mg/kg) and HCQ (22.5 mg/kg); Group 29 was diabetic rats treated with combination of RM (2.3 mg/kg) and HCQ (45 mg/kg). The study drugs (LT and HCQ) were dissolved in distilled water and other study drugs (AZ, RM and TL) were suspended in 0.5% w/v sodium carboxy methyl cellulose (CMC) and administered orally once a day for eight weeks. Biochemical parameters like serum urea, serum creatinine, serum protein, and renal oxidative stress parameters like TBARS and GSH were assessed after the completion of eighth week of the study.

[3] abbreviates: dose mg/kg: LT 5.5, TL 5, AZ 2, RM 0.2, HCQ 22.5, alone or combined with HCQ 22.5.
Setting [4] is: dose mg/kg: LT 11, TL 10, AZ 4, RM 2.3, HCQ 45, alone or combined with HCQ 45.

Take `CCN(CCO)CCCC(C)Nc1ccnc2cc(Cl)ccc12` (centres unmarked) [Hydroxychloroquine, 2-[{4-[(7-chloroquinolin-4-yl)amino]pentyl}(ethyl)amino]ethanol]: in test [1], the “Serum Creatinine after 8th week” value turned out to be 2.80 mg/dL, the “Serum Creatinine after 8th week (% Control)” value is listed as “(88.33) % Control”, the “Total Serum Protein Levels after 8th week” value was 5.39 g/dL and the “Total Serum Protein Levels after 8th week (% Control)” value is on record as “(112.24) % Control”. In test [1], the “Total Protein in Kidney Homogenate (% Control)” value is given as “(107.68) % Control”, the “Total Protein in Kidney Homogenate Mean” value was determined as 1003.83 µg/mL, the “TBARS (% Control)” value is “(57.32) % Control” and the “TBARS Mean” value amounted to 0.47 nM/mg. In test [2] (setting [3]), the Creatinine clearance turned out to be 0.60 ± 0.06 mL/min, the GSH is recorded as 8.59 ± 0.76 nM/mg, the Serum creatinine came to 0.87 ± 0.07 mg/dL and the Serum protein was 5.57 ± 0.20 g/dL. Besides, in test [2] (setting [3]), the Serum urea was determined as 91.29 ± 7.29 mg/dL, the TBARS was 0.726 ± 0.06 nM/mg and the Urea clearance stood at 0.36 ± 0.03 mL/min. For the same compound, in test [2] (setting [4]), the Creatinine clearance came to 0.67 ± 0.10 mL/min, the GSH stood at 14.29 ± 1.33 nM/mg, the Serum creatinine was 0.74 ± 0.12 mg/dL and the Serum protein turned out to be 5.95 ± 0.31 g/dL. In addition, in test [2] (setting [4]), the Serum urea was 83.64 ± 6.60 mg/dL, the TBARS turned out to be 0.608 ± 0.06 nM/mg and the Urea clearance is 0.42 ± 0.04 mL/min.
`CCOC(=O)[C@H](CCc1ccccc1)N[C@@H](C)C(=O)N1[C@H](C(=O)O)C[C@@H]2CCC[C@@H]21` [Ramipril]: in test [2] (setting [3]), the Creatinine clearance is 0.54 ± 0.05 mL/min, the GSH worked out at 8.48 ± 0.59 nM/mg, the Serum creatinine came to 0.90 ± 0.05 mg/dL and the Serum protein was 5.30 ± 0.36 g/dL. In test [2] (setting [3]), the Serum urea was found to be 98.33 ± 6.15 mg/dL, the TBARS is recorded as 0.716 ± 0.06 nM/mg and the Urea clearance is 0.41 ± 0.05 mL/min. In addition, in test [2] (setting [4]), the Creatinine clearance stood at 0.61 ± 0.07 mL/min, the GSH is given as 10.57 ± 0.37 nM/mg, the Serum creatinine stood at 0.85 ± 0.06 mg/dL and the Serum protein was 5.67 ± 0.27 g/dL. For the same compound, in test [2] (setting [4]), the Serum urea amounted to 87.83 ± 5.23 mg/dL, the TBARS came to 0.614 ± 0.06 nM/mg and the Urea clearance was 0.45 ± 0.05 mL/min.
As for `CCOc1nc2cccc(C(=O)O)c2n1Cc1ccc(-c2ccccc2-c2nc(=O)o[nH]2)cc1` [Azilsartan], in test [2] (setting [3]), the Creatinine clearance is 0.69 ± 0.05 mL/min, the GSH turned out to be 9.54 ± 1.54 nM/mg, the Serum creatinine is 0.98 ± 0.07 mg/dL and the Serum protein was determined as 5.79 ± 0.37 g/dL. Further, in test [2] (setting [3]), the Serum urea was determined as 89.83 ± 4.67 mg/dL, the TBARS is on record as 0.624 ± 0.11 nM/mg and the Urea clearance was found to be 0.41 ± 0.07 mL/min. For the same compound, in test [2] (setting [4]), the Creatinine clearance was determined as 0.74 ± 0.04 mL/min, the GSH turned out to be 13.49 ± 0.90 nM/mg, the Serum creatinine amounted to 0.87 ± 0.04 mg/dL and the Serum protein came to 6.76 ± 0.16 g/dL. Further, in test [2] (setting [4]), the Serum urea worked out at 75.94 ± 4.11 mg/dL, the TBARS is on record as 0.540 ± 0.04 nM/mg and the Urea clearance is 0.44 ± 0.03 mL/min.
In the case of `CCCCc1nc(Cl)c(CO)n1Cc1ccc(-c2ccccc2-c2nn[nH]n2)cc1` [Losartan], in test [1], the “Serum Creatinine after 8th week” value turned out to be 3.00 mg/dL, the “Serum Creatinine after 8th week (% Control)” value is “(94.64) % Control”, the “Total Serum Protein Levels after 8th week” value came out at 5.45 g/dL and the “Total Serum Protein Levels after 8th week (% Control)” value is “(113.21) % Control”. Further, in test [1], the “Total Protein in Kidney Homogenate (% Control)” value is on record as “(98.15) % Control”, the “Total Protein in Kidney Homogenate Mean” value turned out to be 909.50 µg/mL, the “TBARS (% Control)” value is recorded as “(76.83) % Control” and the “TBARS Mean” value is reported as 0.63 nM/mg. Besides, in test [2] (setting [3]), the Creatinine clearance turned out to be 0.59 ± 0.06 mL/min, the GSH is 8.66 ± 0.48 nM/mg, the Serum creatinine was found to be 1.23 ± 0.18 mg/dL and the Serum protein is 5.23 ± 0.31 g/dL. For the same compound, in test [2] (setting [3]), the Serum urea was 101.45 ± 2.69 mg/dL, the TBARS was 0.760 ± 0.05 nM/mg and the Urea clearance was found to be 0.33 ± 0.02 mL/min. Further, in test [2] (setting [4]), the Creatinine clearance was 0.67 ± 0.12 mL/min, the GSH came to 12.78 ± 1.48 nM/mg, the Serum creatinine was 0.99 ± 0.05 mg/dL and the Serum protein was found to be 5.75 ± 0.23 g/dL. Also, in test [2] (setting [4]), the Serum urea is 93.10 ± 4.45 mg/dL, the TBARS stood at 0.670 ± 0.05 nM/mg and the Urea clearance was determined as 0.44 ± 0.03 mL/min.
As to `CCCc1nc2c(C)cc(-c3nc4ccccc4n3C)cc2n1Cc1ccc(-c2ccccc2C(=O)O)cc1` [Telmisartan], in test [2] (setting [3]), the Creatinine clearance came to 0.73 ± 0.07 mL/min, the GSH was 9.65 ± 1.24 nM/mg, the Serum creatinine was determined as 1.02 ± 0.13 mg/dL and the Serum protein amounted to 5.94 ± 0.46 g/dL. Also, in test [2] (setting [3]), the Serum urea was 92.39 ± 4.06 mg/dL, the TBARS was 0.675 ± 0.07 nM/mg and the Urea clearance came to 0.45 ± 0.05 mL/min. Moreover, in test [2] (setting [4]), the Creatinine clearance was found to be 0.77 ± 0.04 mL/min, the GSH is 13.82 ± 0.34 nM/mg, the Serum creatinine came out at 0.78 ± 0.07 mg/dL and the Serum protein was determined as 6.53 ± 0.40 g/dL. Moreover, in test [2] (setting [4]), the Serum urea is 82.71 ± 6.53 mg/dL, the TBARS came to 0.560 ± 0.06 nM/mg and the Urea clearance was found to be 0.47 ± 0.04 mL/min.
